{"source": "patent US6691638B2", "about": "“Methods for gamete production in birds” (North Carolina State University, priority 2000, dated 2004)", "origin": "cited, not measured here", "key": {"[1]": {"details": "in vivo; cited from earlier work"}, "PGCs [2]": {"tested_on": "PGCs", "details": "cited from earlier work"}, "gonadal germ cells": {"tested_on": "gonadal germ cells", "details": "cited from earlier work"}, "quail eggs": {"tested_on": "quail eggs", "details": "albumen suspension of BU; cited from earlier work"}, "germ cells": {"tested_on": "germ cells", "details": "100 μg BU in sesame oil; cited from earlier work"}, "[3]": {"details": "forms a suspension; cited from earlier work"}, "PGCs [4]": {"tested_on": "PGCs", "details": "administration in rats; cited from earlier work"}, "chick embryos": {"tested_on": "chick embryos", "details": "injection into the yolk sac; cited from earlier work"}, "[5]": {"details": "50 μg BU suspended in sesame oil, 6 day-old chick embryos"}, "[6]": {"details": "after injection of germinal crescent cells into BU-treated embryos"}}}
{"molecule": "CS(=O)(=O)OCCCCOS(C)(=O)=O", "note": "[BU, 1,4-butanediol dimethane sulfonate]", "values": [{"measurement": "Half-life", "setting": "[1]", "result": "approximately 10 hours"}, {"measurement": "Reduction of PGCs in the left gonad", "setting": "PGCs [2]; [5]", "result": 75, "unit": "%"}, {"measurement": "Reduction of PGCs in the right gonad", "setting": "PGCs [2]; [5]", "result": 78, "unit": "%"}, {"measurement": "PGC numbers, left gonad, % of controls", "setting": "PGCs [2]; [6]", "result": "72 % of controls"}, {"measurement": "PGC numbers, right gonad, % of controls", "setting": "PGCs [2]; [6]", "result": "115 % of controls"}, {"measurement": "Increase of the rate of germline chimerism", "setting": "gonadal germ cells; compared to non-BU treated embryos, estimated", "result": 3.5, "unit": "fold"}, {"measurement": "Effect on gonadal germ cells in chick embryos", "setting": "gonadal germ cells; injection of 25, 50 and 250 μg BU", "result": "significantly reduced"}, {"measurement": "Effect on hatchability", "setting": "quail eggs", "result": "significant declines in hatchability"}, {"measurement": "Sterility index", "setting": "germ cells", "result": "≥ 95", "unit": "%"}, {"measurement": "Solubility in aqueous solutions", "setting": "[3]", "result": "relatively insoluble"}, {"measurement": "Effect on development of PGCs", "setting": "PGCs [4]", "result": "markedly impair"}, {"measurement": "Teratogenic effect", "setting": "chick embryos", "result": "multiple malformations"}]}
